Measured values taken from PubChem BioAssay (NCI).
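Interpolation was linear, between the two tested concentrations surrounding the appropriate level; five concentrations were tested over 48 hours in 96-well plates. TGI denotes the concentration required for complete inhibition of growth.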

Experiments:
Experiment in all cases: growth of human tumour cells (NCI), 48 h
[1] = tested on: CCRF-CEM leukemia
[2] = tested on: RXF 393 renal
[3] = tested on: EKVX NSCLC
[4] = tested on: MDA-MB-435
[5] = tested on: T-47D breast
[6] = tested on: DU-145 prostate
[7] = tested on: IGROV1 ovarian
[8] = tested on: NCI-H522 lung
[9] = tested on: NCI-H460 lung
[10] = tested on: TK-10 renal

Structure (SMILES)	TGI [1] [µM]	TGI [2] [µM]	TGI [3] [µM]	TGI [4] [µM]	TGI [5] [µM]	TGI [6] [µM]	TGI [7] [µM]	TGI [8] [µM]	TGI [9] [µM]	TGI [10] [µM]
CSc1cc(N)ccc1N=Nc1ccc(S(N)(=O)=O)cc1	84.5	> 100	> 100	97.4	58.3	> 100	72.3	43.7	71.6	72
O=C1/C(=C2\Sc3c(ccc(Cl)c3Cl)C2=O)Sc2c1ccc(Cl)c2Cl	> 100	> 100	> 100	> 100	> 100	> 100	> 100	> 100	> 100	> 100
CN(Cc1cnc2nc(N)nc(N)c2n1)c1ccc(C(=O)NC(CCC(=O)NC(P(=O)(O)O)P(=O)(O)O)C(=O)O)cc1 (stereo not given)	> 100	> 100	> 100	> 100	> 100	> 100	> 100	> 100	> 100	> 100
c1ccc2c(Cc3nnc4sc(SSc5nn6c(Cc7c[nH]c8ccccc78)nnc6s5)nn34)c[nH]c2c1	> 100	50.9	> 100	47.7	> 100	67.4	27.6	40	89.3	> 100
Cc1ccc(-c2n[nH]c(=O)[nH]2)cc1[N+](=O)[O-]	> 100	> 100	> 100	> 100	> 100	> 100	> 100	> 100	> 100	> 100
CC1(C)Oc2ccc(NC(=O)CCC(N)C(=O)O)cc2O1 (stereo not given)	> 100	> 100	> 100	> 100	> 100	> 100	> 100	> 100	> 100	> 100
COc1ccc(OC)c2c1C1CCC(=O)N1CN2C(C)=O (stereo not given)	> 100	> 100	> 100	> 100	> 100	> 100	> 100	> 100	> 100	> 100
Cc1c(NC2(C)C(=O)N(/N=C/c3ccccc3)N=C2c2ccccc2)n[nH]c1-c1ccccc1 (stereo not given)	> 100	> 100	> 100	> 100	> 100	> 100	> 100	> 100	> 100	> 100
C/C(O)=C/c1nc2ccc([N+](=O)[O-])cc2nc1/C=C(/C)O	61.9	> 100	> 100	> 100	87.6	> 100	> 100	70	51.5	> 100
O=S1(=O)c2ccccc2NC(=S)CC1c1ccccc1 (stereo not given)	> 100	> 100	> 100	> 100	> 100	> 100	> 100	> 100	> 100	> 100
Cc1cc(C)n(CN(Cn2nc(C)cc2C)C2CCCCC2)n1	44.8	50.9	84.5	45.4	76.2	62.2	50.1	43.8	> 100	> 100
COc1ccc2nc3cc(Cl)ccc3c(NCCNCCCNC(=O)c3cc(-c4ccccc4)nc4ccccc34)c2c1	> 100	> 100	> 100	> 100	> 100	> 100	> 100	> 100	> 100	> 100
Cn1c2ccccc2c2c3c(c4c5ccccc5n(C)c4c21)C(=O)c1ccccc1C3=O	> 100	48.6	> 100	> 100	> 100	> 100	> 100	68.2	> 100	81.3
CC(C)CNC(=O)Cn1c(-c2ccccc2)cc2ccccc21	> 100	> 100	> 100	> 100	> 100	> 100	> 100	> 100	> 100	> 100
CC(=O)N1CCN(C23OC4(N5CCN(C(C)=O)CC5)C5C6CC(C7C6C4C72)C53)CC1 (stereo not given)	> 100	> 100	> 100	> 100	> 100	> 100	> 100	> 100	> 100	> 100
CCc1c(C)c(C#N)c(=S)n(C2OC(CO)C(O)C(O)C2O)c1C (stereo not given)	> 100	> 100	> 100	> 100	> 100	> 100	> 100	> 100	> 100	> 100
C=C(C)C1CC=C(C)C2(C1)OCC(C)(C)C(C)O2 (stereo not given)	83.4	27.3	62.3	48	55.4	> 100	48.2	46.4	> 100	> 100

Structure (SMILES)	TGI [1] [µM]	TGI [2] [µM]	TGI [3] [µM]	TGI [4] [µM]	TGI [5] [µM]	TGI [6] [µM]	TGI [7] [µM]	TGI [8] [µM]	TGI [9] [µM]	TGI [10] [µM]
CC(C)OP(=O)(OC(C)C)C(C(C)C)N(C)/C(F)=N/C(F)(F)F (stereo not given)	> 100	> 100	> 100	> 100	> 100	> 100	> 100	> 100	> 100	> 100
CN(C)CCNc1ncnc2nc(-c3ccc4ccccc4c3)[nH]c12	> 100	> 100	> 100	> 100	> 100	> 100	> 100	> 100	> 100	> 100
CC(=Nc1ccncc1)C(C)=Nc1ccncc1	85.5	59.8	48.7	97.7	77.7	> 100	35.3	35.3	> 100	> 100
Cc1cc(=O)oc2cc(O)ccc12	> 100	> 100	> 100	> 100	> 100	> 100	> 100	> 100	> 100	> 100
NNc1nncn1N	33.2	> 100	> 100	36.3	> 100	> 67.3	> 100	> 100	> 100	> 100
[N-]=[N+]=Nc1ccc(CNc2cc(=O)[nH]c(=O)[nH]2)cc1	> 100	> 100	> 100	> 80	> 100	> 100	> 100	> 100	> 100	> 100
CC(=O)OCC=C(CCl)CCC(Br)C(C)(C)Br (mixture of isomers)	> 10	> 10	> 10	> 10	> 10	> 10	> 10	> 10	> 10	> 10
C[N+](C)(C)c1ncnc2c1ncn2C1CCCCO1 (stereo not given)	> 100	> 100	> 100	> 100	> 100	> 100	> 100	> 100	> 100	> 100
CC1(COS(=O)(=O)OCC2(C)COS(=O)(=O)OC2)COS(=O)(=O)OC1	> 64.4	> 100	> 100	> 78.4	> 100	> 88.6	> 100	> 100	> 100	> 100
Cc1c(-c2ccccc2)c(C#N)c2nnc(C(N)=O)c(N)n12	> 100	> 100	> 100	> 100	> 100	> 100	> 100	> 100	> 100	> 100
O=c1oc2ccc(Cl)cc2cc1-c1cn2cc(Cl)ccc2n1	> 100	> 100	> 100	1.18	> 100	> 100	> 100	11.2	> 100	> 100
S=C(S)NCC1CCC(CNC(=S)S)CC1 (stereo not given)	> 100	40.6	> 100	61.4	38.9	63.4	33.9	28	> 100	51.7
COc1cc2c(/C=C3/C(=O)N(c4ccccc4)c4ccccc43)c(Cl)[nH]c2cc1C	> 38.5	> 81.4	> 31.4	3.55	7.5	9.82	> 25.8	6.24	9.04	12.8
O=c1[nH]c(Nc2cccc(Cl)c2)nc2nc[nH]c12	> 100	> 100	> 100	> 100	> 100	> 100	> 100	> 100	> 100	> 100
CC(C)N(C)C(=O)C12C3C4C1C1C2C3C41C#N (stereo not given)	> 100	> 100	> 100	> 100	> 100	> 100	> 100	> 100	> 100	> 100
CCO/C(O)=C(/C(=N)N1CCCC1)C(=O)Nc1cccc(C(F)(F)F)c1	> 100	53.6	> 100	> 100	> 100	> 100	> 100	> 100	> 100	> 100
